We go through six compounds from US20240400572A1, “COMPOUNDS AND METHODS FOR TREATING CANCERS THAT ARE MGMT DEFICIENT REGARDLESS OF MMR STATUS” (Yale University, priority 2021, published 2024).

Molecules are shown by their SMILES. pIC50: −log10 of the molar value.

One test has as its system LN229 MGMT−/MMR− cells. Kind of test: Short-term cell viability assay. In kind it is cell-based, human. The procedure:
(§1) Short-term Cell Viability Assay. Cells were seeded in 96-well plates at 1000 or 2000 cells/well and allowed to adhere at 23° C. for 60 min and then incubated overnight at 37° C. Cells were treated with indicated concentrations of compounds in triplicate for 4-6 days prior to fixation with 3.7% paraformaldehyde and nuclear staining with 1 μg/mL Hoechst 33342 dye. Cells were imaged on a Cytation 3 imaging reader (BioTek) and quantified using CellProfiler software.
Statistical analysis. Statistical analysis was performed using GraphPad Prism software. Data are presented as mean or median±SD or SEM as indicated. For in vitro short-term growth delay experiments, IC50 values were determined from the nonlinear regression equation, [inhibitor] vs normalized response with variable slope. […]
We synthesized the imidazotetrazine 4a (KL-50) and the triazene 4b (KL-85), as vehicles to deliver 2-fluoroethyl diazonium (4c), and a series of related agents to probe structure-activity relationships in tissue culture (FIG. Z1, D and F). […] We evaluated the cytotoxicity of our compounds in short-term cell viability assays against four isogenic LN229 glioblastoma cell lines engineered to be proficient or deficient in MGMT and/or MMR activity, using short hairpin RNAs (shRNAs) targeting MSH2 (referred to as MGMT+/−, MMR+/− cells hereafter; FIG. ZS2A). […]

Test [1] has as its system LN229 MGMT−/MMR+ and MGMT−/MMR− cells. Kind of test: IR alkaline comet assay. Format: cell-based, human. How it is done:
IR Alkaline Comet Assay. Assay was performed utilizing the CometAssay Kit (Trevigen) according to the alkaline assay protocol, with the addition of slide irradiation post-lysis. Cells were trypsinized, washed with 1×PBS, added to melted Comet LMAgarose (Trevigen), and spread on Trevigen CometSlides at a density of 1000 cells per sample in 50 μL. Lysis solution (Trevigen) with 10% DMSO was added overnight at 4° C. Slides were removed from lysis buffer and irradiated to 0 or 10 Gy using an XRAD 320 X-Ray System (Precision X-Ray) at 320 kV, 12.5 mA, and 50.0 cm SSD, with a 2 mm Al filter and 20 cm×20 cm collimator. Slides were then placed in alkaline buffer (200 mM NaOH, 1 mM EDTA) for 45 min, followed by electrophoresis in 850 mL alkaline buffer for 45 min at 4° C. Slides were washed and stained with SYBR gold (Invitrogen) per Trevigen assay protocol. Slides were imaged on a Cytation 3 imaging reader (BioTek), and comets were analyzed using CometScore 2.0 software (TriTek).
We used a well-established comet assay adapted for ICL detection to determine if ICLs were formed in MGMT− cells treated with KL-50 (4a) (FIG. Z3, A and B). In this assay, cells were sequentially exposed to genotoxins and ionizing radiation, and then analyzed by single cell alkaline gel electrophoresis. Attenuation of the IR-induced comet tail is indicative of ICL formation.

Test [2] deals with genomic DNA of LN229 MGMT−/MMR+ cells. Put plainly: Genomic DNA denaturing gel electrophoresis. In kind it is cell-based, human. The note with it: 200 μM, 24 h. The procedure: Genomic DNA Denaturing Gel Electrophoresis. Cells were trypsinized, washed with 1×PBS, and stored at −80° C. prior to processing. Genomic DNA was extracted with the DNeasy Blood & Tissue Kit (Qiagen) per kit protocol. A 0.7% agarose gel was prepared in 100 mM NaCl-2 mM EDTA (pH 8) and soaked in 40 mM NaOH-1 mM EDTA running buffer for 2 h. Genomic DNA (400 ng/well) was then loaded in 1× BlueJuice loading buffer (Invitrogen) and subjected to electrophoresis at 2 V/cm for 30 min, followed by 3 V/cm for 2 h. The gel was neutralized in 150 mM NaCl-100 mM Tris (pH 7.4) for 30 min, twice, and then stained with 1× SYBR Gold in 150 mM NaCl-100 mM Tris (pH 7.4) for 90 min. Imaging was performed on a ChemiDoc XRS+ Molecular Imager (Bio-Rad).

Test [3] has as its system PD20 cells, FANCD2−/− or +FANCD2. Put plainly: Short-term cell viability assay in FANCD2 model. Format: cell-based, human. The note with it: PD20 FANCD2−/− versus +FANCD2. The procedure: (§2) FIGS. Z4A-Z4I. KL-50 (4a) activates DNA damage response pathways and cycle arrest in MGMT− cells, independent of MMR, and induces sensitivity in cells deficient in ICL or HR repair. (FIGS. Z4A, Z4B, and Z4C) Phospho-SER139-H2AX (γH2AX) (A), 53BP1 (FIG. Z4B), and phospo-SER33-RPA2 (pRPA) (FIG. Z4C) foci formation quantified by % cells with 10 foci in LN229 MGMT+/−, MMR+/− cells treated with 0.1% DMSO control, 20 μM KL-50 (4a), or 20 μM TMZ (1a) for 48 h. Columns, mean; error bars, SD; n≥5 technical replicates. Additional time course data is presented in FIG. ZS6B to D. (FIG. Z4D) Representative foci images of data in (FIG. Z4A) to (FIG. Z4C). (FIG. Z4E) Percentage of cells in G1, S, and G2 cell cycle phases after treatment as in (A) to (C), measured using integrated nuclear (Hoechst) staining intensity. Columns, mean; error bars, SD; n=3 independent analyses. (FIG. Z4F) Change in percent cells with 1 micronuclei from baseline (DMSO control) after treatment as in (FIG. Z4A) to (FIG. Z4C). Columns, mean; error bars, SD; […] technical replicates; **** p<0.0001; ns, not significant. Additional validation is presented in FIG. ZS9, A and B. (FIG. Z4G) Short-term viability assay curves for KL-50 (4a) in PD20 cells, deficient in FANCD2 (FANCD2−/−) or complemented with FANCD2 (+FANCD2). (FIG. Z4H) Short-term viability assay curves for KL-50 (4a) in PEO4 (BRCA2+) and PEO1 (BRCA2−/−) cells pre-treated with 0.01% DMSO control or 10 μM O^6BG (+O^6BG) for 1 h prior to KL-50 (4a) addition. (FIG. Z4I) Short-term viability assay curves for KL-50 (4a) in DLD1 BRCA2+/− and BRCA2−/− cells pre-treated with 0.01% DMSO control or 10 μM O^6BG (+O^6BG) for 1 h prior to KL-50 (4a) addition. For (FIG. Z4G), (FIG. Z4H), and (FIG. Z4I), points, mean; error bars, SD; n=3 technical replicates.
Short-term Cell Viability Assay. Cells were seeded in 96-well plates at 1000 or 2000 cells/well and allowed to adhere at 23° C. for 60 min and then incubated overnight at 37° C. […] Cells were imaged on a Cytation 3 imaging reader (BioTek) and quantified using CellProfiler software.

Test [4] relates to PEO4 (BRCA2+) and PEO1 (BRCA2−/−) cells. Put plainly: Short-term cell viability assay in PEO1/4 model. In kind it is cell-based, human. The note with it: for therapeutic index (TI): PEO1/4 model, ratio of IC50 values; for sensitivity of BRCA2-deficient cells (in words): PEO1 versus PEO4, ± 10 μM O^6BG. The procedure: as §2, §1
Test [5] concerns DLD1 BRCA2+/− and BRCA2−/− cells. Put plainly: Short-term cell viability assay in DLD1 isogenic model. In kind it is cell-based, human. Particulars: for sensitivity of BRCA2-deficient cells (in words): DLD1 BRCA2−/− versus BRCA2+/−, ± 10 μM O^6BG; for therapeutic index (TI): ratio of IC50 values in MGMT+/BRCA2+ cells compared to MGMT−/BRCA2− cells. How it is done: as §2, §1
For test [6], the system named is linearized pUC19 plasmid DNA. Kind of test: Melting temperature assay. In kind it is biochemical. Particulars: 100 or 500 μM for 3 h. The procedure: Melting Temperature Assay. Linearized pUC19 DNA (750 ng), prepared as described above, was incubated with the indicated concentration of either MMS or KL-50 (4a) adjusted in a final volume of 18 μL in 100 mM Tris buffer (pH 7.4) for 3 h. Drug stock concentrations were made in DMSO such that each reaction contained a fixed 5% DMSO concentration. Afterwards, 1 μL each of 20× SYBR Green dye (Invitrogen) and 20× ROX reference dye (Invitrogen) was added and melting temperature analysis was run on a StepOnePlus RT PCR System (Applied Biosciences) to generate melting temperature curves.

Test [7] has as its system four isogenic LN229 glioblastoma cell lines (MGMT+/−, MMR+/−). In kind it is cell-based. Particulars: LN229 MGMT+ versus MGMT− cells; listed as 12a. The procedure:
as §1
Statistical analysis. Statistical analysis was performed using GraphPad Prism software. Data are presented as mean or median±SD or SEM as indicated. For in vitro short-term growth delay experiments, IC50 values were determined from the nonlinear regression equation, [inhibitor] vs normalized response with variable slope. For micronuclei assays, comparisons were made with one-way ANOVA and Sidak correction for multiple comparisons. For xenograft growth delay experiments, comparisons were made with Mann-Whitney test (for comparison of 2 groups) or Kruskal-Wallis test with FDR-adjusted p-values with Q set to 5% (for comparison of ≥3 groups). For xenograft survival analysis, Kaplan-Meier analysis was used to evaluate survival rate based on death or removal from study when body weight loss exceeded 20% of initial body weight
We synthesized the imidazotetrazine 4a (KL-50) and the triazene 4b (KL-85), as vehicles to deliver 2-fluoroethyl diazonium (4c), and a series of related agents to probe structure-activity relationships in tissue culture (FIG. Z1, D and F). The 2-fluoropropyl- and 3-fluoropropyl-triazenes (10 and 11, respectively) were prepared by diazotization of 4-aminoimdazole-5-carboxamide, followed by the addition of the respective amine. All other triazenes were prepared according to literature procedures. We evaluated the cytotoxicity of our compounds in short-term cell viability assays against four isogenic LN229 glioblastoma cell lines engineered to be proficient or deficient in MGMT and/or MMR activity, using short hairpin RNAs (shRNAs) targeting MSH2 (referred to as MGMT+/−, MMR+/− cells hereafter; FIG. ZS2A). This approach allowed us to rapidly and rigorously interrogate the relationship between MGMT and MMR status and compound activity.
The compounds 10a through 10l and TMZ were tested in the short-term cell viability assay.

The test system of test [8] is LN229 MGMT+/−, MMR+/− cells. Kind of test: Clonogenic cell survival assay. Particulars: cell status given in the value.
Method: Cells were trypsinized, washed, counted, and diluted in a medium containing various concentrations of drug. They were then immediately seeded in six-well plates in triplicate at three-fold dilutions, ranging from 9000 to 37 cells per well. Depending on colony size, these plates were kept in the incubator for 10 to 14 days. After incubation, colonies were washed in phosphate-buffered saline (PBS), stained with crystal violet, counted, and quantified.

As usually defined, the pIC50 is the IC50 on a negative log10 scale, so that one unit is a factor of ten. The low end stands for a high IC50, the high end for a low IC50. `NC(=O)c1nc[nH]c1N=NNCCF` [KL-85] showed a negative logarithm of the IC50 (pIC50) in the test on LN229 MGMT−/MMR− cells of 4.56. The “effect on IR-induced comet tail, ICL detection (in words)” value in test [1] (MGMT−/MMR+ cells, 200 μM for 24 h, 10 Gy) is “Comparable results”. Besides, the “crosslinked genomic DNA (in words)” value in [2] is “presence of crosslinked DNA”.
Regarding `CO[C@@]12[C@H](COC(N)=O)C3=C(C(=O)C(C)=C(N)C3=O)N1C[C@@H]1N[C@@H]12` [MMC, mitomycin C], the “effect on IR-induced comet tail, ICL detection (in words)” value was “partial reduction in the IR-induced comet tail” in [1] (MGMT−/MMR+ cells, 0.1 μM for 24 h, 10 Gy) and “completely abolished the IR-induced comet tail” in test [1] (MGMT−/MMR+ cells, 50 μM for 2 h, 10 Gy). In test [1] (MGMT−/MMR+ cells, TMZ and KL-50 200 μM, MMC 0.1 or 50 μM), the “comet tailing in the absence of IR (in words)” value is listed as “did not”. Moreover, in [3], the “sensitivity of FANCD2-deficient cells (in words)” value was “hypersensitivity to crosslinking agents in FANCD2−/− cells”. Further, the “therapeutic index (TI)” value in test [4] stood at 7 fold; in [5], 26 fold. Further, the “sensitivity of BRCA2-deficient cells (in words)” value in test [4] is “hypersensitivity of PEO4 BRCA2−/− cells to crosslinking agents independent of MGMT depletion”; in [5], “hypersensitivity of DLD1 BRCA2−/− cells to crosslinking agents independent of MGMT depletion”.
For the compound `COS(C)(=O)=O` [MMS, Methylmethane sulfonate, reference compound], the “change in DNA melting temperature (in words)” value in test [6] was “comparable changes in measured DNA melting temperature”.
Turning to `NC(=O)c1ncn2c(=O)n(CCCl)nnc12` [MTZ, mitozolomide], the “selectivity for MGMT-deficient cells” value in test [7] is approximately 7 fold. Further, in [1] (MGMT−/MMR− cells, 200 μM, 2, 8 or 24 h, 0 Gy), the “DNA damage in unirradiated samples (in words)” value is given as “induced maximal damage at 2 h, which decreased over time”. For the same compound, in [1] (MGMT−/MMR− cells, 200 μM, 2, 8 or 24 h, 10 Gy), the “rate of ICL formation, DNA mobility after IR (in words)” value is on record as “reduced DNA mobility within 2 h”.
As for `N.N.[Cl][Pt][Cl]` [cisplatin], in test [3], the “sensitivity of FANCD2-deficient cells (in words)” value was “hypersensitivity to crosslinking agents in FANCD2−/− cells”. Besides, in [4], the “therapeutic index (TI)” value is on record as 13 fold and the “sensitivity of BRCA2-deficient cells (in words)” value is given as “hypersensitivity of PEO4 BRCA2−/− cells to crosslinking agents independent of MGMT depletion”. Besides, in test [5], the “sensitivity of BRCA2-deficient cells (in words)” value is “hypersensitivity of DLD1 BRCA2−/− cells to crosslinking agents independent of MGMT depletion” and the “therapeutic index (TI)” value came to 42 fold.
Take `O=NN(CCCl)C(=O)NC1CCCCC1` [lomustine]: the “clonogenic survival (in words)” value in [8] is “effective in MMR− cells but was cytotoxic to MGMT+ cells”.
